This is an account of results in patent US20250154112A1, “A PREPARATION OF QUINAZOLINEDIONES AND USE THEREOF” (COUNCIL OF SCIENTIFIC AND INDUSTRIAL RESEARCH AN INDIAN …, priority 2021, published 2025).

Each structure is given as a SMILES string.

Data set [1] concerns ATGL. Description: Fold change in ATGL by densitometric analysis. In kind it is cell-based. Particulars: fold change of ATGL with respect to control, normalized with actin. The procedure: Densitimetric analysis was performed by image J to calculate the fold change of ATGL with respect to control. The values were normalized with actin.
Data set [2] in a line: Lipophilicity assay (octanol/buffer Log D). Particulars: pH 7.4, n-octanol/sodium phosphate buffer. Type of data set: physicochemical. The procedure:
1.56 g NaH2PO4·2H2O was dissolved in 0.5 L water in a 1 L beaker. After adjusting pH to 7.4 using NaOH solution, the volume was made up to 1 L. Equal volumes of sodium phosphate buffer (10 mM, pH 7.4) and n-octanol were added to a separation funnel and mixed thoroughly by shaking and inverting the funnel several times. The two layers were allowed to separate for overnight and then dispensed in two separate glass bottles. 10 mM stock solution was prepared in 100% DMSO and stored at 4° C. 495 μL of organic phase (1-octanol) was added to each well of a 2 mL deep well plate, followed by 495 μL of buffer and 10 μL of test substance was added. The plate was incubated for 3 hrs at room temperature on a plate shaker at 500 rpm. After incubation, the samples were allowed to equilibrate for 20 min and then centrifuged at 4000 rpm for 30 min for complete phase separation and analysed by LC-UV. Log D=Log (area of octanol/area of buffer)

Data set [3] can be described thus: Metabolic stability using human liver microsomes (HLM). Type of data set: in vitro ADME. The protocol:
1 mM stock solution of test compound was prepared in DMSO and diluted with Acetonitrile:Water (1:1) to get a 100 μM working concentration. 100 mL of Milli Q water was added to K2HPO4 (1.398 g) and KH2PO4 (0.27 g) to get final pH 7.4 solution of potassium phosphate buffer. […] The above mixture was pre incubated for 15 minutes at 37° C. After pre incubation, 32.5 μL of the mixture was added to 17.5 μL of buffer, this was incubated for 60 minutes at 37° C. [60 min Without Cofactor (NADPH)]. 16.25 μL of the pre incubated mixture and 8.75 μL of cofactor was added to 150 μL of acetonitrile containing internal standard [0 min Sample]. 62 μL of cofactor was added to remaining pre incubation mixture [Incubation mixture]. 25 μL of incubation mixture at 0, 5, 15, 30, 60 min and 60 min without cofactor were precipitated with 150 μL of acetonitrile containing internal standard, vortexed and centrifuged at 4000 rpm at 4° C. for 20 minutes. 120 μL of supernatant was diluted with 120 μL of water and analyzed by LC-MS/MS [sample preparation].
(In general: Microsomes from liver hold many membrane-bound enzymes, among them those of drug oxidation.)

The test system of data set [4] is ATGL. Description: Western blot of ATGL level in primary mouse hepatocytes. In kind it is cell-based. Particulars: 10 nM to 500 nM, 24 hours, with respect to control. The procedure: To further strengthen the efficiency of the compound 62, primary hepatocytes were isolated from mice and these compounds were treated in a dose dependent manner for 24 hours. Primary hepatocytes and adipose tissue explants were isolated from mice and subjected to compound treatment for 24 hours at the doses of 10 nM, 20 nM, 50 nM, 100 nM and 500 nM. Post cell harvesting, western blot was carried out with the lysate to check the ATGL level. ATGL and COP1 antibodies were used. Actin served the purpose of a loading control.
Hepatocytes-2-4 months old chow-fed black male mouse (C57b1/6) was sacrificed using chloroform (SRL) and was cleaned with 70% ethanol. […] Blood was drawn from the heart in order to prevent backflow into liver while perfusion. The butterfly cannula was inserted into the PV and 20 ml of HBSS (Hank's Balanced Salt Solution; 5 mM KCl, 0.4 mM KH2PO4, 4 mM NaHCO3, 140 mM NaCl, 0.3 mM Na2HPO4, 6 mM Glucose, HEPES, 0.5 mM MgCl2.6H2O, 0.4 mM MgSO4·7H2O, 0.5 mM EDTA; not containing 1 mM CaCl2)) was allowed to pass through the liver (Perfusion) at a constant flow rate of 3 ml/min, maintained by Masterflex digital peristaltic pump (Cole-Parmer). The IVC was cut as soon as the passage of the buffer through the liver began, so that blood and perfusate from liver was drained through the IVC. The liver blanched and became pale in color upon this treatment. […]
(In general: In western blotting, separated proteins are transferred to a membrane and probed.)

Data set [5] has as its system ATGL. Briefly: In vivo study, Western blot of ATGL in mice liver and adipose tissue. The conditions noted are these: 80 mg/kg orally, 9 days. Also on record: species or system C57BL/6 mice. The procedure: (§1) 6-8 weeks old healthy male C57BL/6 mice (average weight: 28 grams) were taken for the study. These were then divided into two groups comprising of three mice per group (Control, compound 62). Mice were fed with 80 mg/kg of compound 62 orally. The compound was dissolved in 10% EtOH, 40% PEG, 20% PG, 30% NaCl solution (0.9%). The control group was fed only with the solvent in which the compound was dissolved. Post 9 days of one-time feeding mice were sacrificed and a portion of the excised liver tissue and adipose was homogenized in lysis buffer containing protease inhibitor cocktail. The homogenate was centrifuged at 20,000 g for 30 minutes following which the supernatant containing the protein lysate was collected. The lysate was then diluted accordingly, and protein estimation was carried out by Bradford Assay. This was followed by Western Blotting wherein the levels of ATGL and COP1 were checked. Actin was used as the loading control.

Another data set has as its target T1, COP1 (Mus musculus, UniProt Q9R1A8).
T1 construct: from tissue; host or cells: liver and adipose tissue of C57BL/6 mice
Description: In vivo study, Western blot of COP1 in mice liver and adipose tissue. The arrangement: species or system C57BL/6 mice. Particulars: 80 mg/kg orally, 9 days. The protocol: as §1

The nature of data set [6]: Determination of EC50 (in-vitro).

T1 sequence (Q9R1A8 whole entry): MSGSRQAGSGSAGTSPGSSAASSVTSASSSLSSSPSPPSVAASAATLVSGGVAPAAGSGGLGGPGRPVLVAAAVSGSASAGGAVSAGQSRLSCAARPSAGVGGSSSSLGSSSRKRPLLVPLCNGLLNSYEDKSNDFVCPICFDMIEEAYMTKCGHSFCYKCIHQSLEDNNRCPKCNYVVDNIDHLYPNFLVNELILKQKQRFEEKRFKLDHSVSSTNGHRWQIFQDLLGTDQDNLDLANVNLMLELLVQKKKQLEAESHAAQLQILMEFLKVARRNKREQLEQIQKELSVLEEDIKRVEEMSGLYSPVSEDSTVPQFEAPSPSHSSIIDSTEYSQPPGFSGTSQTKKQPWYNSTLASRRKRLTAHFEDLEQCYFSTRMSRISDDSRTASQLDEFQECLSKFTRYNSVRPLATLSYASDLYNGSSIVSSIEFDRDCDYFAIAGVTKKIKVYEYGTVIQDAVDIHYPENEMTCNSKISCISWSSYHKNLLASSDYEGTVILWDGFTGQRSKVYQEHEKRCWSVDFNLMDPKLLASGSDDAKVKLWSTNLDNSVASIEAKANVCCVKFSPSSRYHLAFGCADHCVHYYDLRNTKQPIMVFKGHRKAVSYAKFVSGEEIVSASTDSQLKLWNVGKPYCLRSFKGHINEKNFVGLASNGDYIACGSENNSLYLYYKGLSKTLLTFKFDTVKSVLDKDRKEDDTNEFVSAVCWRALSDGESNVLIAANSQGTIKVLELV

`COCCn1c(=O)[nH]c2ccc(NC(=O)Nc3cccc(C(C)=O)c3)cc2c1=O` [Compound 5, 1-(3-acetylphenyl)-3-(3-(2-methoxyethyl)-2,4-dioxo-1,2,3,4-tetrahydroquinazolin-6-yl)urea] gave a Fold change in the data set with ATGL [1] of 1.44. Also, the “LogD @ pH 7.4” value in data set [2] was determined as 2.17. Besides, the “% QH (Well stirred model)” value in data set [3] came to 7.60%.
The EC50 is the concentration giving half of the maximal effect. Take `COCCn1c(=O)c2cc(NC(=O)Nc3cccc(C(C)=O)c3)ccc2n(CCN2CCCCC2)c1=O` [Compound 62, 1-(3-acetylphenyl)-3-(3-(2-methoxyethyl)-2,4-dioxo-1-(2-(piperidin-1-yl)ethyl)-1,2,3,4-tetrahydroquinazolin-6-yl)urea]: the “ATGL level (Western Blot)” value with ATGL [4] was “increased ATGL level”. Moreover, in the data set with ATGL [5], the “ATGL levels in liver and adipose lysates” value is “effective in increasing ATGL and COP1 levels”. In addition, at COP1, the “COP1 levels in liver and adipose lysates” value is “effective in increasing ATGL and COP1 levels”. The compound further returned an EC50 in data set [6] of 45.7 nM. In the data set on ATGL [1], this compound displayed a Fold change of 1.55. For the same compound, the “LogD @ pH 7.4” value in data set [2] was determined as 2.78. Further, in data set [3], the “% QH (Well stirred model)” value is 56.74%.
A word on the logD: it is the decadic logarithm of the distribution of all forms, ionised or not, between an organic phase and buffer at a given pH. A higher logD goes with higher lipophilicity. For the compound `COCCn1c(=O)c2cc(NC(=O)Nc3cccc(C(C)=O)c3)ccc2n(CCCN2CCOCC2)c1=O` [Compound 94, 1-(3-acetylphenyl)-3-(3-(2-methoxyethyl)-1-(3-morpholinopropyl)-2,4-dioxo-1,2,3,4-tetrahydroquinazolin-6-yl)urea], the Fold change in the data set on ATGL [1] worked out at 0.84. The compound also came in with a logD in data set [2] of 0.97. In data set [3], the “% QH (Well stirred model)” value was determined as 59.60%.
